# Source: ChEMBL document CHEMBL3525978, “Preferred binding orientations of phenacetin in CYP1A1 and CYP1A2 are associated with isoform-selective metabolism” (Drug Metab Dispos, 2012)
# Columns and labels:
# Type in all cases: ADME
# [1] = Ratio of Kcat for CYP1A2 (unknown origin) expressed in Escherichia coli DH5alpha to Kcat for CYP1A1 (unknown origin) expressed in Escherichia coli DH5alpha; conditions: human
# CYP1A1, CYP1A2 = test: Ratio of Km for CYP1A1 (unknown origin) expressed in Escherichia coli DH5alpha to Km for CYP1A2 (unknown origin) expressed in Escherichia coli DH5alpha; conditions: human
# Cytochrome P450 1A1 = molecular target: T1, Cytochrome P450 1A1 (Homo sapiens, UniProt P04798); test: Ratio of Kcat to Km for CYP1A1 (unknown origin) expressed in Escherichia coli DH5alpha preincubated for 5 mins before NADPH addition measured after 30 mins by HPLC analysis; conditions: 0.5 h
# T1 sequence (P04798 whole entry): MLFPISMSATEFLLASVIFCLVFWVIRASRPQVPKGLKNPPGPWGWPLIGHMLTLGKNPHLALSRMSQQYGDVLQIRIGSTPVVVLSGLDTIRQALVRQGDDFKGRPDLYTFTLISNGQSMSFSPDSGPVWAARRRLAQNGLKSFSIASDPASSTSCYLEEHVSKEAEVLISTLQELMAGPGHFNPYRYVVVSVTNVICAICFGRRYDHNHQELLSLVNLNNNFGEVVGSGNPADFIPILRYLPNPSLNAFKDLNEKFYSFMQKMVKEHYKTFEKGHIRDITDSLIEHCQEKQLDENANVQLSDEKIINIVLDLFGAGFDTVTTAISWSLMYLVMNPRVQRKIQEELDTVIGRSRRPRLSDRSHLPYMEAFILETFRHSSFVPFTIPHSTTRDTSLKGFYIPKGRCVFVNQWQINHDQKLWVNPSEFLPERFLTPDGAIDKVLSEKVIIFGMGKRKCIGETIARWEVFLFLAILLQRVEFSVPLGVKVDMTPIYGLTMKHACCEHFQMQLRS
# Cytochrome P450 1A2 = molecular target: T2, Cytochrome P450 1A2 (Homo sapiens, UniProt P05177); test: Ratio of Kcat to Km for CYP1A2 (unknown origin) expressed in Escherichia coli DH5alpha preincubated for 5 mins before NADPH addition measured after 30 mins by HPLC analysis; conditions: 0.5 h
# T2 sequence (P05177 whole entry): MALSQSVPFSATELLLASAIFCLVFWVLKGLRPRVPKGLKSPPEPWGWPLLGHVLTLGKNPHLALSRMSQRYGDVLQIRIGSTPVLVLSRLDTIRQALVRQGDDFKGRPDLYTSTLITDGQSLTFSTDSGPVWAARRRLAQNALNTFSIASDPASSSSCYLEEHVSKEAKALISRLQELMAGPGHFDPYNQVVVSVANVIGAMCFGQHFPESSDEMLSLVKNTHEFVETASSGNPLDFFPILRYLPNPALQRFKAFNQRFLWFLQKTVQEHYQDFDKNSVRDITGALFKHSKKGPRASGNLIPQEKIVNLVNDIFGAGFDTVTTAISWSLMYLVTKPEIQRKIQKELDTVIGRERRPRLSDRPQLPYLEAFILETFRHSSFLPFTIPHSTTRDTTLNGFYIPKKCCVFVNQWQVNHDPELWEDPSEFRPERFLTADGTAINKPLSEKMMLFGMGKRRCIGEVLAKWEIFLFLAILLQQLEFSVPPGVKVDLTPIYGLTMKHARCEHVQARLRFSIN
Ratio [1],Kcat/Km (Cytochrome P450 1A1),Kcat/Km (Cytochrome P450 1A2),SMILES,"selectivity ratio (CYP1A1, CYP1A2)"
2.5,,,CCOc1ccc(NC(C)=O)cc1 [PHENACETIN],8
,0.001,0.018,CC(=O)Nc1ccc(O)cc1 [ACETAMINOPHEN],
